Results: patent publication US10316017B2, “COT modulators and methods of use thereof” (Gilead Sciences, Inc., priority 2015, dated 2019)

Experiments:
[1] = target: T1, human Cot catalytic domain (30-397 amino acids) (Homo sapiens, UniProt P41279); assay: High Throughput Cot Biochemical Assay (KinEASE TR-FRET); settings: Cot KinEASE TR-FRET, 400 μM ATP; read-out: IC50 HTRF
T1 construct: Purified recombinant human Cot catalytic domain (30-397 amino acids) was purchased from Cama Biosciences; purchased Cama Biosciences (so in the source)
T1 sequence (P41279 30-397): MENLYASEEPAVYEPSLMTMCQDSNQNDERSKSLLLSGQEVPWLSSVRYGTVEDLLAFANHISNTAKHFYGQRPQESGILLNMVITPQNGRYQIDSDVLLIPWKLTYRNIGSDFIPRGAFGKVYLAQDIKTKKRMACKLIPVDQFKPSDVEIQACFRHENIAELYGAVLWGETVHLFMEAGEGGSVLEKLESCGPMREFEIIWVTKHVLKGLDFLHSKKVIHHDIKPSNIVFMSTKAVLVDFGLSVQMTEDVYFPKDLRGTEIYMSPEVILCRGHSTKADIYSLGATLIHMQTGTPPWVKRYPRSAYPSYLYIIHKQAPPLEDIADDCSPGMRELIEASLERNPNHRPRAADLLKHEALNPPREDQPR
Summary of the method: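 First, purified human Cot (aa 30-397) at 5 nM phosphorylates an XL665-labeled STK3 peptide (1 μM) at 400 μM ATP, pH 7.0, 0.1% DMSO. Then a europium-conjugated phospho-specific antibody binds the product, giving the TR-FRET signal.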

[2] = system: TNFα production in LPS-stimulated human monocytes; assay: Cot Monocyte TNFα Cell Based Assay; settings: Homo sapiens, Monocyte, LPS-stimulated human monocytes, TNFα TR-FRET; read-out: EC50 TNF
Summary of the method: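 5,000 cells/well; cmpd 1 h, 37 °C, 0.5% DMSO final; LPS 50 pg/ml, 4 h, 37 °C; media TNFα by HTRF sandwich (cryptate/XL665), RT overnight; % control vs unstimulated/stimulated wells.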

Row | SMILES | IC50 [1] [nM] | EC50 [2] [nM]
1 | CCN1CCC(n2cc([C@@H](Nc3cc(Cl)c4ncc(C#N)c(NCC(C)(C)C)c4c3)c3ccc(Cl)cc3)nn2)CC1 [Example 954, (S)-8-chloro-6-(((4-chlorophenyl)(1-(1-ethylpiperidin-4-yl)-1H-1,2,3-triazol-4-yl)methyl)amino)-4-(neopentylamino)quinoline-3-carbonitrile] | 5 | 130
2 | CCN1CCC(n2cc([C@@H](Nc3cc(Cl)c4ncc(C#N)c(N[C@H](CCC#N)c5ccccc5)c4c3)c3ccc(Cl)cc3)nn2)CC1 [Example 955, 8-chloro-6-(((S)-(4-chlorophenyl)(1-(1-ethylpiperidin-4-yl)-1H-1,2,3-triazol-4-yl)methyl)amino)-4-(((R)-3-cyano-1-phenylpropyl)amino)quinoline-3-carbonitrile] | 2 | 31
3 | CC(C)(C)CNc1c(C#N)cnc2c(C#N)cc(N[C@H](c3cn(C4(C#N)CC4)nn3)c3ccccc3Cl)cc12 [Example 956, (S)-6-(((2-chlorophenyl)(1-(1-cyanocyclopropyl)-1H-1,2,3-triazol-4-yl)methyl)amino)-4-(neopentylamino)quinoline-3,8-dicarbonitrile] | 5 | 61
4 | CC(C)(C)CNc1c(C#N)cnc2c(C#N)cc(N[C@H](c3cn(C4(C(N)=O)CC4)nn3)c3ccccc3Cl)cc12 [Example 957, (S)-1-(4-((2-chlorophenyl)((3,8-dicyano-4-(neopentylamino)quinolin-6-yl)amino)methyl)-1H-1,2,3-triazol-1-yl)cyclopropane-1-carboxamide] | 3 | 170
5 | [2H]C(Nc1cc(Cl)c2ncc(C#N)c(NCC(C)(C)C)c2c1)(c1cn(C2(C3CC3)CC2)nn1)c1ccccc1Cl (stereo not drawn) [Example 958, 6-(((1-([1,1'-bi(cyclopropan)]-1-yl)-1H-1,2,3-triazol-4-yl)(2-chlorophenyl)methyl-d)amino)-8-chloro-4-(neopentylamino)quinoline-3-carbonitrile] | 31 | 460
6 | [2H][C@@](Nc1cc(Cl)c2ncc(C#N)c(NCC(C)(C)C)c2c1)(c1cn(C2(c3cccnc3)CC2)nn1)c1ccccc1Cl [Example 960, 8-chloro-6-(((2-chlorophenyl)(1-(1-(pyridin-3-yl)cyclopropyl)-1H-1,2,3-triazol-4-yl)methyl-d)amino)-4-(neopentylamino)quinoline-3-carbonitrile] | 12 | 86
7 | N#CCC[C@@H](Nc1c(C#N)cnc2c(C#N)cc(N[C@@H](c3ccccc3)c3cn(C4(C#N)CC4)nn3)cc12)c1ccccc1 [Example 961, 4-(((R)-3-cyano-1-phenylpropyl)amino)-6-(((S)-(1-(1-cyanocyclopropyl)-1H-1,2,3-triazol-4-yl)(phenyl)methyl)amino) quinoline-3,8-dicarbonitrile] | 1 | 21
8 | CC(C)(C)CNc1c(C#N)cnc2c(C#N)cc(N[C@H](c3cn(C4(C)CC4)nn3)c3ccccc3Cl)cc12 [Example 962, (S)-6-(((2-chlorophenyl)(1-(1-methylcyclopropyl)-1H-1,2,3-triazol-4-yl)methyl)amino)-4-(neopentylamino)quinoline-3,8-dicarbonitrile] | 7 | 116
9 | CC(C)(C)CNc1c(C#N)cnc2c(C#N)cc(N[C@H](c3cn(CC(N)=O)nn3)c3ccccc3Cl)cc12 [Example 963, (S)-2-(4-((2-chlorophenyl) ((3,8-dicyano-4-(neopentylamino)quinolin-6-yl)amino)methyl)-1H-1,2,3-triazol-1-yl)acetamide] | 3 | 777
10 | [2H][C@](Nc1cc(Cl)c2ncc(C#N)c(NCC(C)(C)C)c2c1)(c1cn(C2(CO)COC2)nn1)c1ccccc1Cl [Example 965, 8-chloro-6-(((2-chlorophenyl) (1-(3-(hydroxymethyl)oxetan-3-yl)-1H-1,2,3-triazol-4-yl)methyl-d)amino)-4-(neopentylamino) quinoline-3-carbonitrile] | 14 | 286
11 | [2H][C@](Nc1cc(Cl)c2ncc(C#N)c(Nc3cccc(Cl)c3OC(F)(F)F)c2c1)(c1ccc(F)cc1)c1cn(C2CC2)nn1 [Example 966, (S)-8-chloro-4-((3-chloro-2-(trifluoromethoxy)phenyl)amino)-6-(((1-cyclopropyl-1H-1,2,3-triazol-4-yl)(4-fluorophenyl)methyl-d)amino)quinoline-3-carbonitrile] | 86 | ≥ 1000
12 | [2H][C@](Nc1cc(Cl)c2ncc(C#N)c(NC3(C(F)F)CC3)c2c1)(c1ccc(F)cc1)c1cn(C2CC2)nn1 [Example 967] | 714 | ≥ 1000
13 | CC(C)(C)CNc1c(C#N)cnc2c(C#N)cc(N[C@@H](c3ccc(F)cc3)c3cn(C4(c5ccccn5)CC4)nn3)cc12 [Example 968, (S)-6-(((4-fluorophenyl)(1-(1-(pyridin-2-yl)cyclopropyl)-1H-1,2,3-triazo1-4-yl)methyl)amino)-4-(neopentylamino) quinoline-3,8-dicarbonitrile] | 17 | 110
14 | [2H]C(Nc1cc(C#N)c2ncc(C#N)c(NCC(C)(C)C)c2c1)(c1cccc(C#N)c1)c1cn(C2(C(N)=O)CC2)nn1 (stereo not drawn) [Example 969, 1-(4-((3-cyanophenyl)((3,8-dicyano-4-(neopentylamino)quinolin-6-yl)amino)methyl-d)-1H-1,2,3-triazol-1-yl)cyclopropane-1-carboxamide] | 1 | ≥ 1000
15 | CC(C)(C)CNc1c(C#N)cnc2c(Cl)cc(N[C@@H](c3ccccc3)c3cn(C(F)(F)C(N)=O)nn3)cc12 [Example 970, (S)-2-(4-(((8-chloro-3-cyano-4-(neopentylamino)quinolin-6-yl)amino)(phenyl)methyl)-1H-1,2,3-triazol-1-yl)-2,2-difluoroacetamide] | 8 | 202
16 | [2H][C@](Nc1cc(Cl)c2ncc(C#N)c(NCC(C)(C)C)c2c1)(c1cccc(C#N)c1)c1cn(C(F)(F)C(N)=O)nn1 [Example 971, (S)-2-(4-(((8-chloro-3-cyano-4-(neopentylamino)quinolin-6-yl)amino)(3-cyanophenyl)methyl-d)-1H-1,2,3-triazol-1-yl)-2,2-difluoroacetamide] | 4 | 270
17 | CC[C@@H](Nc1c(C#N)cnc2c(Cl)cc(N[C@H](c3cn(C(F)(F)C(N)=O)nn3)c3ccccc3Cl)cc12)c1ccccc1 [Example 972, 2-(4-((S)-((8-chloro-3-cyano-4-(((R)-1-phenylpropyl)amino)quinolin-6-yl)amino) (2-chlorophenyl)methyl)-1H-1,2,3-triazol-1-yl)-2,2-difluoroacetamide] | 27 | 636
18 | CC(C)(C)CNc1c(C#N)cnc2c(C#N)cc(N[C@@H](c3ccc(F)cc3)c3cn(C4(C5CC5)CC4)nn3)cc12 [Example 973, (S)-6-(((1-([1,1'-bi (cyclopropan)]-1-yl)-1H-1,2,3-triazol-4-yl)(4-fluorophenyl)methyl)amino)-4-(neopentylamino) quinoline-3,8-dicarbonitrile] | 9 | 67
19 | CC(C)(C)CNc1c(C#N)cnc2c(C#N)cc(N[C@@H](c3ccc(F)cc3)c3cn(C4(c5cccnc5)CC4)nn3)cc12 [Example 974, (S)-6-(((4-fluorophenyl)(1-(1-(pyridin-3-yl)cyclopropyl)-1H-1,2,3-triazol-4-yl)methyl)amino)-4-(neopentylamino) quinoline-3,8-dicarbonitrile] | 46 | 46
20 | CC(C)(C)CNc1c(C#N)cnc2c(C#N)cc(N[C@@H](c3ccccc3)c3cn(C4(C(N)=O)CC4)nn3)cc12 [Example 975, (S)-1-(4-(((3,8-dicyano-4-(neopentylamino)quinolin-6-yl)amino)(phenyl)methyl)-1H-1,2,3-triazol-1-yl)cyclopropane-1-carboxamide] | 3 | 321
21 | CC(C)(C)CNc1c(C#N)cnc2c(C#N)cc(N[C@@H](c3ccc(F)cc3)c3cn(C4(C#N)CC4)nn3)cc12 [Example 976, (S)-6-(((1-(1-cyanocyclopropyl)-1H-1,2,3-triazol-4-yl)(4-fluorophenyl)methyl)amino)-4-(neopentylamino)quinoline-3,8-dicarbonitrile] | 6 | 58
22 | CC(C)(C)CNc1c(C#N)cnc2c(C#N)cc(N[C@@H](c3ccc(F)cc3)c3cn(C4(C(N)=O)CC4)nn3)cc12 [Example 977, (S)-1-(4-(((3,8-dicyano-4-(neopentylamino)quinolin-6-yl)amino)(4-fluorophenyl)methyl)-1H-1,2,3-triazol-1-yl)cyclopropane-1-carboxamide] | 6 | 285
23 | CC(C)(C)CNc1c(C#N)cnc2c(C#N)cc(N[C@@H](c3ccc(F)cc3)c3cn(C4(C)CC4)nn3)cc12 [Example 978, (S)-6-(((4-fluorophenyl)(1-(1-methylcyclopropyl)-1H-1,2,3-triazol-4-yl)methyl)amino)-4-(neopentylamino)quinoline-3,8-dicarbonitrile] | 5 | 65
24 | CC(C)(C)CNc1c(C#N)cnc2c(C#N)cc(N[C@@H](c3ccc(F)cc3)c3cn(C4(CO)CC4)nn3)cc12 [Example 979, (S)-6-(((4-fluorophenyl)(1-(1-(hydroxymethyl)cyclopropyl)-1H-1,2,3-triazol-4-yl)methyl)amino)-4-(neopentylamino)quinoline-3,8-dicarbonitrile] | 4 | 103
